Test results reported in ChEMBL document CHEMBL1155400, “The design and development of 2-aryl-2-hydroxy ethylamine substituted 1H,7H-pyrido[1,2,3-de]quinoxaline-6-carboxamides as inhibitors of human cytomegalovirus polymerase” (Bioorg Med Chem Lett, 2010).
Values after ≈ are worked out from the molar mass of the structure shown.

Key:
[1] = Cytotoxicity against HFF cells after 3 days by […] dye uptake assay; type: cell-based; settings: human
[2] = test system: Human betaherpesvirus 5; test: Antiviral activity against Human cytomegalovirus infected in HFF cells by plaque reduction assay; type: functional, organism-based; settings: Human betaherpesvirus 5, HFF
[3] = Inhibition of HCMV recombinant DNA polymerase expressed in baculovirus infected SF9 cells after 12 mins by scintillation proximity assay; set-up: species or system Human betaherpesvirus 5
[4] = Aqueous solubility of the compound; type: physicochemical
[5] = Inhibition of Varicella zoster virus recombinant DNA polymerase expressed in baculovirus infected SF9 cells after 12 mins by scintillation proximity assay; set-up: species or system Human alphaherpesvirus 3
[6] = target: T1, DNA polymerase alpha catalytic subunit (Homo sapiens, UniProt P09884); test: Inhibition of human recombinant DNA polymerase alpha expressed in baculovirus infected SF9 cells after 12 mins by scintillation proximity assay
T1 sequence (P09884 whole entry): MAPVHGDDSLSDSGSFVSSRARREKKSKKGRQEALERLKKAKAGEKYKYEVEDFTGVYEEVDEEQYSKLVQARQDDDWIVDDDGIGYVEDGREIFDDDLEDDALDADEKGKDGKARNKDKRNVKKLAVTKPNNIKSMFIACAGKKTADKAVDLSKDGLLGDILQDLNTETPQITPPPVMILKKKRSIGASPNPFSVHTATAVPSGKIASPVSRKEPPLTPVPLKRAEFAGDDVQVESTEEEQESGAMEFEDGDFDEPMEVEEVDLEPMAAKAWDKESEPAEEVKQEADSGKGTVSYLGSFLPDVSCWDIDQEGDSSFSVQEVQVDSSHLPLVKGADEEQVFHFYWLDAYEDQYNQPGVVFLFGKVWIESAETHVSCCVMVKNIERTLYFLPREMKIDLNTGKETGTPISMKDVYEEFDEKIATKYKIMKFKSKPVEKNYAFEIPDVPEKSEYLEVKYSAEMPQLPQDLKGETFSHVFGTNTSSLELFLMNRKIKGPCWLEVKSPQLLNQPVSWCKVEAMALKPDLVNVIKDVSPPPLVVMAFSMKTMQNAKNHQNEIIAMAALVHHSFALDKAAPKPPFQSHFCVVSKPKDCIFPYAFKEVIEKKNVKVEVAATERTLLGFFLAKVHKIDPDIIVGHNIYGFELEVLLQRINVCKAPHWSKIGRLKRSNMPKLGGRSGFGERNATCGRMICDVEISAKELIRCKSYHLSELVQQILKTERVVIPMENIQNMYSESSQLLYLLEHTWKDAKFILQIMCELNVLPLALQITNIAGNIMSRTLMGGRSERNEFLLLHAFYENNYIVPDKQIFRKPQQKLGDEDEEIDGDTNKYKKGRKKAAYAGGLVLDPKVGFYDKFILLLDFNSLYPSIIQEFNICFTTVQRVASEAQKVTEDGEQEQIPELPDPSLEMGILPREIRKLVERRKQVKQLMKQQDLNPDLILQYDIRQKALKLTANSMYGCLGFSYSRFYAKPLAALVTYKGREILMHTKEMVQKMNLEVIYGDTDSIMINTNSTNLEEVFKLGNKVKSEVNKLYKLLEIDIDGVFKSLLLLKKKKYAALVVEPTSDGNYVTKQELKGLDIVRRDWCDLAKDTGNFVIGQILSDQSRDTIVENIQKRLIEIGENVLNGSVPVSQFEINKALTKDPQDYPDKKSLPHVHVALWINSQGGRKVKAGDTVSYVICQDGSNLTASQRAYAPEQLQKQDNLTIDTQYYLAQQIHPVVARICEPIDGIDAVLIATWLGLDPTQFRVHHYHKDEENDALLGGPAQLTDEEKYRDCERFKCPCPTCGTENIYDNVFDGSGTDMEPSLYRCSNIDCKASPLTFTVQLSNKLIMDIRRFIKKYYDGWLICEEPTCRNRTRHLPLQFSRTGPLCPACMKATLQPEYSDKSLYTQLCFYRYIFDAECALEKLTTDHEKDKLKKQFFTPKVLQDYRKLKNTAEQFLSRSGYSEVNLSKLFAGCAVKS

[7] = test system: Human alphaherpesvirus 3; test: Antiviral activity against Varicella zoster virus infected in HFF cells by plaque reduction assay; type: functional, organism-based; settings: Human alphaherpesvirus 3, HFF

Compound	IC50 [2]	IC50 [3]	CC50 at 72 h [1]	other results
CN(Cc1cc2c3c(c1)c(=O)c(C(=O)NCc1ccc(Cl)cc1)cn3CC(=O)N2C)CC(O)c1csc2ccccc12 (racemic)	100 nM	97 nM	> 15000 nM	
Nc1nc2c(ncn2COCCO)c(=O)[nH]1 [ACYCLOVIR]	20000 nM			
CN(Cc1cc2c3c(c1)c(=O)c(C(=O)NCc1ccc(Cl)cc1)cn3CC(=O)N2C)C[C@@H](O)c1cc2ccccc2o1	1 nM	4 nM	> 15000 nM	solubility [4]: 0.94 µg/mL (≈ 1.61 µM); IC50 [5]: 29 nM; IC50 [6]: > 5000 nM; IC50 [7]: 4 nM
CN(Cc1cc2c3c(c1)c(=O)c(C(=O)NCc1ccc(Cl)cc1)cn3CC(=O)N2C)C[C@H](O)c1cc2ccccc2o1	90 nM	180 nM	> 15000 nM	
Cn1cc(C(=O)NCc2ccc(Cl)cc2)c(=O)c2cc(CCCO)sc21	600 nM	400 nM		
CN(Cc1cc2c3c(c1)c(=O)c(C(=O)NCc1ccc(Cl)cc1)cn3CC(=O)N2C)C[C@H](O)c1ccccc1		9160 nM		
CN(Cc1cc2c3c(c1)c(=O)c(C(=O)NCc1ccc(Cl)cc1)cn3CC(=O)N2C)CC(O)c1cc2ccccc2o1 (racemic)		8 nM	> 15000 nM	
CN(Cc1cc2c3c(c1)c(=O)c(C(=O)NCc1ccc(Cl)cc1)cn3CC(=O)N2C)C[C@@H](O)c1ccccc1	100 nM	130 nM	> 15000 nM	
CN(Cc1cc2c(=O)c(C(=O)NCc3ccc(Cl)cc3)cn(C)c2s1)C[C@@H](O)c1ccco1	7 nM	35 nM		solubility [4]: 0.19 µg/mL (≈ 0.391 µM)
CN(Cc1cc2c(=O)c(C(=O)NCc3ccc(Cl)cc3)cn(C)c2o1)C[C@@H](O)c1ccco1	26 nM	76 nM		
CN(Cc1cc2c3c(c1)c(=O)c(C(=O)NCc1ccc(Cl)cc1)cn3CC(=O)N2C)CC(O)c1ccc2ccccc2n1 (racemic)		42 nM	> 15000 nM	
CN(Cc1cc2cc(CCO)n3cc(C(=O)NCc4ccc(Cl)cc4)c(=O)c(c1)c23)C[C@@H](O)c1cnccn1	10 nM	14 nM		solubility [4]: 17 µg/mL (≈ 31.1 µM)

The next lines start with results.

IC50 [2]	IC50 [3]	Compound	CC50 at 72 h [1]	other results
20 nM	300 nM	CN(Cc1cc2c3c(c1)c(=O)c(C(=O)NCc1ccc(Cl)cc1)cn3CC(=O)N2C)C[C@@H](O)c1ccccn1	> 15000 nM	
	4410 nM	O=C(NCc1ccc(Cl)cc1)c1cn2c3c(cc(CN4CCOCC4)cc3c1=O)N(CCCN1CCOCC1)C(=O)C2		
	1840 nM	O=C(NCc1ccc(Cl)cc1)c1cn2c3c(cc(CN4CCOCC4)cc3c1=O)N(CCCO)C(=O)C2		
200 nM	260 nM	CN(Cc1cc2c3c(c1)c(=O)c(C(=O)NCc1ccc(Cl)cc1)cn3CC(=O)N2C)C[C@@H](O)c1cnccn1		
	5250 nM	CN(Cc1cc2c3c(c1)c(=O)c(C(=O)NCc1ccc(Cl)cc1)cn3CC(=O)N2C)C[C@H](O)c1ccccn1		
	6200 nM	CN(Cc1cc2c3c(c1)c(=O)c(C(=O)NCc1ccc(Cl)cc1)cn3CC(=O)N2C)C[C@H](O)c1nccs1		
700 nM	830 nM	O=C(NCc1ccc(Cl)cc1)c1cn2c3c(cc(CN4CCOCC4)cc3c1=O)N(CCO)C(=O)C2		
10 nM	110 nM	CN(Cc1cc2c3c(c1)c(=O)c(C(=O)NCc1ccc(Cl)cc1)cn3CC(=O)N2C)C[C@@H](O)c1ccco1	> 15000 nM	
	4930 nM	CN(Cc1cc2c3c(c1)c(=O)c(C(=O)NCc1ccc(Cl)cc1)cn3CC(=O)N2C)C[C@H](O)c1ccco1		
	4550 nM	CN(Cc1cc2c3c(c1)c(=O)c(C(=O)NCc1ccc(Cl)cc1)cn3CC(=O)N2C)C[C@H](O)c1cccnc1		
100 nM	620 nM	CN1C(=O)Cn2cc(C(=O)NCc3ccc(Cl)cc3)c(=O)c3cc(CN4CCOCC4)cc1c32		solubility [4]: 8.6 µg/mL (≈ 17.9 µM); IC50 [5]: 180 nM; IC50 [6]: > 5000 nM; IC50 [7]: 20 nM
	1280 nM	CCN1C(=O)Cn2cc(C(=O)NCc3ccc(Cl)cc3)c(=O)c3cc(CN4CCOCC4)cc1c32		
300 nM	690 nM	Cn1cc(C(=O)NCc2ccc(Cl)cc2)c(=O)c2cc(CN3CCOCC3)ccc21		
100 nM	490 nM	CN(Cc1cc2c3c(c1)c(=O)c(C(=O)NCc1ccc(Cl)cc1)cn3CC(=O)N2C)C[C@@H](O)c1nccs1		
10 nM	150 nM	CN(Cc1cc2c3c(c1)c(=O)c(C(=O)NCc1ccc(Cl)cc1)cn3CC(=O)N2C)C[C@@H](O)c1cccnc1	> 15000 nM	
	7700 nM	CN(Cc1cc2c3c(c1)c(=O)c(C(=O)NCc1ccc(Cl)cc1)cn3CC(=O)N2C)C[C@H](O)c1cnccn1		
100 nM	190 nM	CN(Cc1cc2c3c(c1)c(=O)c(C(=O)NCc1ccc(Cl)cc1)cn3CC(=O)N2C)C[C@@H](O)c1ccsc1	> 15000 nM	
	5720 nM	CN(Cc1cc2c3c(c1)c(=O)c(C(=O)NCc1ccc(Cl)cc1)cn3CC(=O)N2C)C[C@H](O)c1ccsc1		
